From patent US9795597B2, “Cyclopropylamines as LSD1 inhibitors” (GlaxoSmithKline Intellectual Property (No.2) Limited, priority 2011, dated 2017) come the findings set out here.

Assay [1] concerns the target T1, MAO-B (Homo sapiens, UniProt P27338).
T1 construct: purchased Gentest-BD Biosciences 456284
T1 sequence (P27338 1-520): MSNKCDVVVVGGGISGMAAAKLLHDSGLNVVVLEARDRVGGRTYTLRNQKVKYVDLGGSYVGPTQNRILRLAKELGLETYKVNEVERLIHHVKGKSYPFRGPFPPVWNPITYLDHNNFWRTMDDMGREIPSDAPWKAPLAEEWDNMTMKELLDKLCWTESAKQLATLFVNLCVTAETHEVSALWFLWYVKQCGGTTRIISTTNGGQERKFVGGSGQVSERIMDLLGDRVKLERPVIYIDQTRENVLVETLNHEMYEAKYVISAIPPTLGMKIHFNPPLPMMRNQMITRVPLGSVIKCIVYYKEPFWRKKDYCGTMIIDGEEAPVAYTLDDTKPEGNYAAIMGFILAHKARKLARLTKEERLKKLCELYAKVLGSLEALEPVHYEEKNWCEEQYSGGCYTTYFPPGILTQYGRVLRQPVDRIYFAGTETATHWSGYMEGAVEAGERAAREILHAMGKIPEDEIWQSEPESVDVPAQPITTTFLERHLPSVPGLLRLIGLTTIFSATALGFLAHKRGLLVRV
Briefly: Biochemical assay for MAO-B activity (FLINT, benzylamine/amplex red). The conditions noted are these: average of two or more tests; 30 min preincubation of enzyme and compound; read-out: MAOB PIC50 MEAN (converted). On the procedure:
Biochemical Assay for MAO-B Activity
The MAO-B FLINT assay is performed in a buffer containing 50 mM potassium phospate, pH 7.4, in milliQ ultrapure water. […] The enzyme and test compound are allowed to incubate together for 30 minutes at room temperature. Five microliters of the substrate mix are then added to each well of the plate to initiate the reaction. The plates are covered, protected from light and allowed to incubate for one hour at room temperature. […] Percent inhibition is calculated based on no compound and no enzyme controls, and inhibition curves are then plotted to determine PIC50 values.

For assay [2], the target named is T2, LSD1 (Homo sapiens, UniProt O60341).
T2 construct: made in house
Briefly: Biochemical assay for LSD-1 activity (luminescence, H3K4 dimethylated peptide substrate). Conditions: average of two or more tests; 30 min preincubation of enzyme and compound; read-out: LSD1 PIC50 MEAN (converted). On the procedure: Biochemical Assay for LSD-1 Activity
The LSD-1 luminescence assay is performed in a buffer containing 25 mM Tris, pH 7.5, 50 mM potassium chloride, 0.02% heat-denatured BSA, 2 mM CHAPS and milliQ ultrapure water. […] The enzyme and test compound are allowed to incubate together for 30 minutes at room temperature. Two microliters of the substrate mix are then added to each well of the plate to initiate the reaction. The plates are covered, protected from light and allowed to incubate for two hours at room temperature. Then, 4 uL of HyPerBlu peroxide detection luminescence reagent (Lumigen/Beckman Coulter, cat# HPB-00005) is added to each well to quench the demethylase reaction and generate the peroxide-dependent luminescence signal. The plates are then incubated for 15-30 minutes in the dark at room temperature prior to being read for Luminescence using a Perkin Elmer Viewlux plate reader. Percent inhibition is calculated based on no compound and no enzyme controls, and inhibition curves are then plotted to determine PIC50 values.

In the case of `c1ccc(C2C[C@@H]2NCC2CCCNCC2)cc1` (stereo in doubt) [Example 22, N-(Hexahydro-1H-azepin-4-ylmethyl)-trans-2-phenylcyclopropanamine], the values for the IC50 in assay [1] and in assay [2] were 100000 nM and 79.4 nM, respectively.

Turning to `Fc1ccccc1C[N+]1(Cc2ccccc2F)CCC(CN[C@@H]2C[C@H]2c2ccccc2)CC1` (relative stereo) [Example 35, 1,1-Bis(2-fluorobenzyl)-4-(((trans-2-phenylcyclopropyl)amino)methyl)piperidin-1-ium chloride], the IC50 in assay [1] is 31600 nM; in assay [2], 15.8 nM.

As to `CN(CCC1CCNCC1)[C@@H]1C[C@H]1c1ccccc1` (relative stereo) [Example 77, trans-N-Methyl-2-phenyl-N-(2-(piperidin-4-yl)ethyl)cyclopropanamine], the IC50 was 31600 nM in assay [1] and 200 nM in assay [2].

With `OB(O)c1ccc(CN2CCC(CN[C@@H]3C[C@H]3c3ccccc3)CC2)cc1` (relative stereo) [Example 57, (4-((4-(((trans-2-phenylcyclopropyl)amino)methyl)piperidin-1-yl)methyl)phenyl)boronic acid], the IC50 in assay [1] is 31600 nM; in assay [2] it was 7.94 nM.

Turning to `CC(C)(C)OC(=O)N1CCCC(CN[C@H]2CC2c2ccccc2)CC1` (stereo in doubt) [Example 21, 1,1-Dimethylethyl 4-({[trans-2-phenylcyclopropyl]amino}methyl)hexahydro-1H-azepine-1-carboxylate], the IC50 in assay [1] is 15800 nM; in assay [2] it was 2000 nM.

Regarding `CC(C)(C)OC(=O)N[C@H]1CC[C@H](CN[C@@H]2C[C@H]2c2ccccc2)CC1` (relative stereo) [Example 9, 1,1-Dimethylethyl[trans-4-({[trans-2-phenylcyclopropyl]amino}methyl)cyclohexyl]carbamate], the IC50 was 398 nM in assay [1] and 158 nM in assay [2].

With `CC(=O)N1CCC(CN[C@@H]2C[C@H]2c2ccccc2)CC1` (relative stereo) [Example 15, 1-(4-(((trans-2-Phenylcyclopropyl)amino)methyl)piperidin-1-yl)ethanone], the IC50 in assay [1] is 15800 nM; in assay [2], 316 nM.

In the case of `OCCN1CCC(CN[C@@H]2C[C@H]2c2ccccc2)CC1` (relative stereo) [Example 11, 2-(4-(((trans-2-Phenylcyclopropyl)amino)methyl)piperidin-1-yl)ethanol], the IC50 in assay [1] is 31600 nM; in assay [2], 12.6 nM.

Take `O=C(O)c1ccc(CN2CC[C@@H](CN[C@@H]3C[C@H]3c3ccccc3)C2)cc1` [Example 28b, 4-{[(3S)-3-({[(1R,2S)-2-Phenylcyclopropyl]amino}methyl)-1-pyrrolidinyl]methyl}benzoic acid]: the IC50 in assay [1] was 25100 nM; in assay [2], 79.4 nM.

Turning to `c1ccc(CN2CCC(CN[C@@H]3C[C@H]3c3ccccc3)CC2)cc1` (relative stereo) [Example 8, [trans-2-Phenylcyclopropyl]{[1-(phenylmethyl)-4-piperidinyl]methyl}amine], the IC50 is 25100 nM in assay [1] and 6.31 nM in assay [2].
